Data reported in patent publication US11453689B2, “3-pyrrolidine-indole derivatives as serotonergic psychedelic agents for the treatment of CNS disorders” (Mindset Pharma Inc., priority 2020, dated 2022).
Read-outs that look alike come from different tables or passages of the source.

How the values were obtained:
[1] = tobacco use disorder, cited from earlier work
[2] = Mouse liver microsomes stability with NADPH
Procedure: (§1) The objective of this study was to estimate in vitro metabolic stability of exemplary compounds in pooled human, male rat and male mouse liver microsomes. The concentrations of exemplary compounds in reaction systems were evaluated by LC-MS/MS for estimating the stability in pooled human, male rat and male mouse liver microsomes. The in vitro intrinsic clearances of test compounds were determined as well.
(§2) A master solution in the “Incubation Plate” containing phosphate buffer, ultra-pure H2O, MgCl2 solution and liver microsomes was made according to Table 3. The mixture was pre-warmed at 37° C. water bath for 5 minutes.
(§3) 40 μL of 10 mM NADPH solution was added to each well. The final concentration of NADPH was 1 mM. The negative control samples were prepared by replacing NADPH with 40 μL of ultra-pure H2O. Samples were prepared in duplicate. Negative controls were prepared in singlet.
(§4) The reaction was started with the addition of 4 μL of 200 μM exemplary test compounds or control compounds to each master solution to get the final concentration of 2 μM. This study was performed in duplicate.
(§5) Aliquots of 50 μL were taken from the reaction solution at 0, 15, 30, 45 and 60 minutes. The reaction solutions were stopped by the addition of 4 volumes of cold methanol with IS (100 nM alprazolam, 200 nM imipramine, 200 nM labetalol and 2 μM ketoprofen). Samples were centrifuged at 3,220 g for 40 minutes. Aliquot of 90 μL of the supernatant was mixed with 90 μL of ultra-pure H2O and then was used for LC-MS/MS analysis.
(§6) LC/MS analysis was performed for all samples from this study using a Shimadzu liquid chromatograph separation system equipped with degasser DGU-20A5R; solvent delivery unit LC-30AD; system controller SIL-30AC; column oven CTO-30A; CTC Analytics HTC PAL System. Mass spectrometric analysis was performed using an Triple Quad™ 5500 instrument.
(§7) All calculations were carried out using Microsoft Excel. Peak areas were determined from extracted ion chromatograms. The slope value, k, was determined by linear regression of the natural logarithm of the remaining percentage of the parent drug vs. incubation time curve.
(§8) Conversion of the in vitro t1/2 (min) into the in vitro intrinsic clearance (in vitro CLint, in μL/min/mg proteins) was done using the following equation (mean of duplicate determinations): […]

[3] = biological target: human 5-HT2A (h5-HT2A) receptor (Homo sapiens (Human), UniProt P28223); assay: FLIPR calcium assay, human 5-HT2A receptor, agonist mode; assay type: cell-based
Procedure: I. Assessment of the Activated Effect of Exemplary Compounds of Formula I Targeting on Human 5-HT2A (h5-HT2A) Receptor Under Agonist Mode:
1. Culture the cells in cell culture medium (DMEM containing 10% FBS, 1× penicillin-streptomycin 300 μg/ml G418 and 100 μg/ml hygromycin B) at 37° C., 5% (v/v) CO2.
2. One day before the assays, detach the cell using TrypLE™ Express and count cells using cell counter.
3. Seed 20000 cells/well in 30 μl/well culture medium to a 384-well cell plate and incubate the cells overnight at 37° C., 5% (v/v) CO2.
4. On the assay day, prepare 2×dye solution following the manual of the FLIPR® Calcium 6 Assay Kit: i. Dilute the dye with assay buffer(20 mM HEPES in 1× HBSS, PH7.4); ii. Add probenecid to the final concentration of 5 mM; iii. Vortex vigorously for 1-2 minutes.
5. Medium from cell plate by flicking the cell plate on towel papers.
6. Add 10 μl of assay buffer and 10 μl of 2×dye solution to each well of the cell plate.
7. Put the cell plate on plate shaker, agitate the plate at 600 rpm for 2 minutes. Incubate the plate at 37° C. for 2 hours followed by additional 15-minute incubation at 25° C.
8. Prepare 3×compound in assay buffer: a. Dilute reference compounds to required concentration with DMSO. Add the compounds to a 384-well compound plate; b. Perform serial dilutions; c. Add 10 mM test compounds to the compound plate, perform 3-fold serial dilutions. d. […] Add 20 μl/well assay buffer to the compound plate; f. Mix the plate on plate shaker for 2 mins;
i. The normalized fluorescence reading (RFU) is calculated as shown follow, while Fmax and Fmin stand for maximum and minimum of calcium signal during defined time window: RFU=Fmax−Fmin
ii. Calculate the percentage activation by using following equation: […]
iii. Calculate EC50 by fitting % activation against log of compound concentrations with Hill equation using XLfit.

human 5-HT2A receptor = human 5-HT2A receptor (Homo sapiens (Human), UniProt P28223); assay: Radioligand ([3H]-ketanserin) binding assay on human 5-HT2A receptor
Procedure: i. Prepare the assay buffer following the table below;
ii. Preparation of 8 doses of reference and exemplary test compounds starting from 10 mM stock solution as requested by 5-fold serial dilutions with 100%;
iii. […] a. Add 50 μl/well of 0.5% (v/v) PEI to UniFilter-96 GF/B plates. Seal the plates and incubate at 4° C. for 3 hrs; b. After incubation, wash the plates 3 times with ice-cold wash buffer (50 mM Tris, pH7.4);
iv. Preparation of assay plates: a. Dilute cell membrane with assay buffer and add 330 μl/well to 96 round deep well plates to reach a concentration of 20 μg/well; b. Prepare 8 concentrations of reference or exemplary test compounds and add 110 μl/well to 96 round deep well plates; c. Dilute [3H]-ketanserin with assay buffer to 5 nM (5× final concentration) and add 110 μl/well to 96 round deep well plates.
v. Centrifuge the plate at 1000 rpm for 30 secs and then agitate at 600 rpm, R.T. for 5 min.
vi. Seal the plates and incubate the plate at 27° C. for 90 min.
vii. Stop the incubation by vacuum filtration onto GF/B filter plates followed by 4 times washing with ice-cold wash buffer (50 mM Tris, pH7.4).
ix. Seal the filter plates and add 40 μl/well of scintillation cocktail.
x. Read the plate by using a Microbeta2 microplate counter.
For reference and exemplary test compounds, the results are expressed as % Inhibition, using the normalization equation: N=100−100×(U−C2)/(C1−C2), where U is the unknown value, C1 is the average of high controls, and C2 is the average of low controls. The IC50 is determined by fitting percentage of inhibition as a function of compound concentrations with Hill equation using XLfit.

[4] = Human liver microsomes stability with NADPH
Procedure: as §1, §2, §3, §4, §5, §6, §7, §8

[5] = Rat liver microsomes stability with NADPH
Procedure: as §1, §2, §3, §4, §5, §6, §7, §8

[6] = test system: head-twitch response (HTR) in male C57BL6 mice; assay: Mouse head-twitch response (HTR); assay type: in vivo; conditions: M100907 0.5 mg/kg IP before I-2 10 mg/kg SC
Procedure: Male, C57BL/6J mice (body weight range 20-30 g) were dosed with the appropriate dose of test article, and following a 1-minute pre-treatment time, placed in individual observation chambers. Animals were visually assessed for the incidence head twitches continuously over a 1 hr period. Head twitches were defined as a rapid jerk of the head which was not elicited by an external tactile stimulus (Come and Pickering, Psychopharmacologia, 1967, 11(1): 65-78). Each head twitch was individually counted by a trained observer, and the data expressed as the mean±SEM of 6-10 mice per group. Mice were used in a single experiment only.
The effect of various doses of exemplary compound of Formula I, I-2, on head-twitch response (HTR) in male C57BL6 mice were measured. The mice were treated with compound I-2 (0.03-10 mg/kg, SC) by SC route (N=6 mice/dose), and the total number of head twitches were recorded over a 1h period. Data is expressed as mean±SEM. The induction of head twitches elicited by 5-HT2A receptor agonists is believed to represent a behavioural proxy of their psychedelic effects.
To evaluate the involvement of 5-HT2A receptor on the HTR induced by exemplary compounds of Formula I, mice were pretreated with the selective 5-HT2AR antagonist M100907 (also known as volinanserin) prior to the administration of exemplary compounds of Formula I, for example, 1-2 (10 mg/kg SC).

CN(C)CCc1c[nH]c2cccc(OP(=O)(O)O)c12 [psilocybin, 4-phosphoryloxy-N,N-dimethyltrypatmine]
abstinence rate ([1]; 12 months follow-up): 67%
abstinence rate ([1]; six months follow-up): 80%

[2H]C([2H])([2H])N1CCC[C@@H]1Cc1c[nH]c2cccc(F)c12 [Compound I-40, (R)-4-fluoro-3-((1-(methyl-d3)pyrrolidin-2-yl)methyl)-1H-indole]
half-life at 2 μM ([2]; male, mouse, microsomes): 63 min
microsomal CLint at 2 μM ([2]; male, mouse, microsomes): 22 µL/min/mg
Remaining Percentage (%) after 60 min, Mouse ([2]; mouse liver microsomes, with NADPH, 2 μM): 51.70%
EC50 [3]: < 1000 nM
IC50 (human 5-HT2A receptor): < 500 nM
Remaining Percentage (%) after 60 min, Human ([4]; human liver microsomes, with NADPH, 2 μM): 35.69%
half-life at 2 μM ([4]; human, microsomes): 40.4 min
microsomal CLint at 2 μM ([4]; human, microsomes): 34.5 µL/min/mg
half-life at 2 μM ([5]; male, rat, microsomes): 54.3 min
microsomal CLint at 2 μM ([5]; male, rat, microsomes): 25.5 µL/min/mg
Remaining Percentage (%) after 60 min, Rat ([5]; rat liver microsomes, with NADPH, 2 μM): 46.51%

COc1cccc([C@H](O)C2CCN(CCc3ccc(F)cc3)CC2)c1OC [Compound M100907, reference compound]
effect of I-2 on HTR after pretreatment with 5-HT2A antagonist M100907 [6]: completely blocked
